Results: patent publication US6689343B1, “Hemostatic and acid etch compositions containing sucralose” (Ultradent Products, Inc., priority 2002, dated 2004)

Assay: Storage stability of sucralose in the acidic composition
Format: physicochemical
Settings: highly acidic in water

stability in the presence of hemostatic or dental etching agents: stable
Compound: OC[C@H]1O[C@H](O[C@]2(CCl)O[C@H](CCl)[C@@H](O)[C@@H]2O)[C@H](O)[C@@H](O)[C@H]1Cl [sucralose, 1,6-dichloro-1,6-dideoxy-β-D-fructo-furanosyl-4-chloro-4-deoxy-α-D-galactopyranoside]
